Experimental data: patent US9096591B2, “Tetracyclic compounds” (Medivation Technologies, Inc., priority 2007, dated 2015)

Legend:
[1] = biological target: T1, human recombinant adrenergic α1D receptor (Homo sapiens, UniProt P25100); assay: Adrenergic α1D radioligand binding ([3H]Prozosin); design: Inhibition of ligand binding, Adren. alpha1D: concentration or dose not given beside the values; conditions: percent inhibition of specific binding
T1 construct: expressed in transfected cells; host or cells: HEK-293 cells
T1 sequence (P25100 1-572): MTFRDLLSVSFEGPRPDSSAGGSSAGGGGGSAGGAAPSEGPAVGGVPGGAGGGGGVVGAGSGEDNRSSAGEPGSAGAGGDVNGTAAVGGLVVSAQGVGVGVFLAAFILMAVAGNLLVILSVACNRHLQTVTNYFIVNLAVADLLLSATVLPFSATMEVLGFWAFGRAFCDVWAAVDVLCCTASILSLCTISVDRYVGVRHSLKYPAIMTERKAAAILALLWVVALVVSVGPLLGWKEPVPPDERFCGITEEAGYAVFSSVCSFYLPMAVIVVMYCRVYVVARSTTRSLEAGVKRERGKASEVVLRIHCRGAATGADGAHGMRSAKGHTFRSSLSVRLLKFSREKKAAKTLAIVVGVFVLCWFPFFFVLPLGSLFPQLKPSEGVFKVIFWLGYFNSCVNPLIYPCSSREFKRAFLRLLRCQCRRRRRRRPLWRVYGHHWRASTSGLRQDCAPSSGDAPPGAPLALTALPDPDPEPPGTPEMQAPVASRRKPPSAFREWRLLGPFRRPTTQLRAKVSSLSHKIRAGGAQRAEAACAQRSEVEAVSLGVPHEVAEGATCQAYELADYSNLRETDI
Procedure: Compounds of invention were incubated with 0.6 nM [^3H]Prozosin for 60 minutes at 25° C. Non-specific binding was estimated in the presence of 10 μM phentolamine. Receptor proteins were filtered and washed, the filters were then counted to determine [^3H]Prozosin specifically bound. […] Biochemical assay results are presented as the percent inhibition of specific binding in Table 6.

[2] = biological target: T2, human recombinant serotonin (5-Hydroxytryptamine) 5-HT2C receptor (Homo sapiens, UniProt P28335); assay: Serotonin 5-HT2C radioligand binding ([3H]Mesulergine); design: Inhibition of ligand binding, Ser. 5-HT2C: concentration or dose not given beside the values; conditions: percent inhibition of specific binding
T2 construct: expressed in transfected cells; host or cells: CHO-K1 cells
T2 sequence (P28335 33-458): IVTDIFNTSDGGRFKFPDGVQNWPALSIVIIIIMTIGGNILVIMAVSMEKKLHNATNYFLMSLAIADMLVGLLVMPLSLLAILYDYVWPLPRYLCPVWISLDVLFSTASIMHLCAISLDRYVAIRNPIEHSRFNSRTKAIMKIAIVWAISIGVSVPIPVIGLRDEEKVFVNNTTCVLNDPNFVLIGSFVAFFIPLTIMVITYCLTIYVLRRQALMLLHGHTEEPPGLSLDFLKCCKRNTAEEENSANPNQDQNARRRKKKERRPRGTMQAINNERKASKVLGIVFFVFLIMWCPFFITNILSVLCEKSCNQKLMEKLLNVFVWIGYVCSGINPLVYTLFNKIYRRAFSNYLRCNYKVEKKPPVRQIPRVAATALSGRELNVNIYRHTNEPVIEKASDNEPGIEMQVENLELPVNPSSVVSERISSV
Procedure: (§1) Compounds of the invention were incubated with 1 nM [^3H]Mesulergine for 60 minutes at 25° C. Non-specific binding was estimated in the presence of 1 μM Mianserin. Receptor proteins were filtered and washed, the filters were then counted to determine [^3H]Mesulergine specifically bound. […] Biochemical assay results are presented as the percent inhibition of specific binding in Table 6.

[3] = biological target: T3, human recombinant serotonin (5-Hydroxytryptamine) 5-HT2A receptor (Homo sapiens, UniProt P28223); assay: Serotonin 5-HT2A radioligand binding ([3H]Ketanserin); conditions: percent inhibition of specific binding
T3 construct: expressed in transfected cells; host or cells: CHO-K1 cells
Procedure: as §1, with “with 0.5” for “with 1”, “nM [^3H]Ketanserin” for “nM [^3H]Mesulergine”, “determine [^3H]Ketanserin” for “determine [^3H]Mesulergine”

[4] = biological target: T4, human recombinant histamine H2 receptor (Homo sapiens, UniProt P25021); assay: Histamine H2 radioligand binding ([125I]Aminopotentidine); conditions: percent inhibition of specific binding; screened at 1 μM; read-out: Inhibition of ligand binding, Hist. H2
T4 construct: expressed in transfected cells; host or cells: CHO-K1 cells
Outline: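 This radioligand binding assay measured displacement of [125I]Aminopotentidine from recombinant human histamine H2 receptors. Compounds were dissolved in 1% DMSO vehicle. Specific binding was calculated by subtracting non-specific binding, defined using 3 μM Tiotidine, and activity was reported as percentage inhibition of that specific binding.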

[5] = biological target: T5, human recombinant adrenergic α2B receptor (Homo sapiens, UniProt P18089); assay: Adrenergic α2B radioligand binding ([3H]Rauwolscine); design: Inhibition of ligand binding, Adren. alpha2B: concentration or dose not given beside the values; conditions: percent inhibition of specific binding
T5 construct: expressed in transfected cells; host or cells: CHO-K1 cells
T5 sequence (P18089 1-450): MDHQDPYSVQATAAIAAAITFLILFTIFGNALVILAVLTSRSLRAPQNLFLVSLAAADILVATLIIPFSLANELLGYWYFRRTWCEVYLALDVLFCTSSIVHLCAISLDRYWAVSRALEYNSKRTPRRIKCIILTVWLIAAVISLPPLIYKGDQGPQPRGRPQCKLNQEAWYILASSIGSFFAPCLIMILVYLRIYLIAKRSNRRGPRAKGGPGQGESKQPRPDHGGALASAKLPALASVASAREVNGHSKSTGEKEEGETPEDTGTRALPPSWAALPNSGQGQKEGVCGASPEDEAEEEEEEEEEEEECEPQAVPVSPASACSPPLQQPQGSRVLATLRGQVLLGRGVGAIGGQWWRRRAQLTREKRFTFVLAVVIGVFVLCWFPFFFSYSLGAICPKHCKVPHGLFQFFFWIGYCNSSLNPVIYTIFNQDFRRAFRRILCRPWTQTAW
Outline: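 Incubation ran 60 minutes at 25 °C in modified Tris-HCl buffer (50 mM, pH 7.4, 12.5 mM MgCl2, 1 mM EDTA, 0.2% BSA) using CHO-K1-expressed human receptor.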

T4 sequence (P25021 whole entry): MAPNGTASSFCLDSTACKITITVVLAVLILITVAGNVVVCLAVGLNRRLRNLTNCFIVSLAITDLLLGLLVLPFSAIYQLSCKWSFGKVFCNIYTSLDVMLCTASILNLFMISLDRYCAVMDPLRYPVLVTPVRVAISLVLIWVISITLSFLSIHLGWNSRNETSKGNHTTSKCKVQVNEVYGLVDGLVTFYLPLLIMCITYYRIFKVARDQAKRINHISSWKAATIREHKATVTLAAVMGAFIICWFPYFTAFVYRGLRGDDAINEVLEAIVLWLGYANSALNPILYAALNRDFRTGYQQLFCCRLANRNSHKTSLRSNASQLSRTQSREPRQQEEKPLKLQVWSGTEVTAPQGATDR
T3 sequence (P28223 whole entry): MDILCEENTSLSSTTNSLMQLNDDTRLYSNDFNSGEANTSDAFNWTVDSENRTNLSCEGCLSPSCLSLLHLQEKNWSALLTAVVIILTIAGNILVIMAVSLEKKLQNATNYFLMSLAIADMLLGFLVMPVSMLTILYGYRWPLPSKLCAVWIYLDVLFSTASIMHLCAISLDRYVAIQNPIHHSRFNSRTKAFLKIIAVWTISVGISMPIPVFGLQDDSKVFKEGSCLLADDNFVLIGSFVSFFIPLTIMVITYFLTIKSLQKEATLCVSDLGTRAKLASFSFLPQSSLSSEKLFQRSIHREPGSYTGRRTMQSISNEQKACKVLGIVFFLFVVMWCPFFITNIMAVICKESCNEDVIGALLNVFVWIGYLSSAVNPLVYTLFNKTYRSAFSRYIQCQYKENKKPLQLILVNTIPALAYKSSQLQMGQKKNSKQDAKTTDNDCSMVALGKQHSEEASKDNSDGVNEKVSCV

Row | Compound | Inhibition of ligand binding, Adren. alpha1D [1] [%] | Inhibition of ligand binding, Ser. 5-HT2C [2] [%] | Inhibition of ligand binding, Ser. 5-HT2A [3] [%] | inhibition at 1 µM [4] [%] | Inhibition of ligand binding, Adren. alpha2B [5] [%]
1 | Cc1ccc(CCn2c3c(c4cc(C(C)C)ccc42)CN(C)CC3)cn1 [Compound 392, 8-Isopropyl-2-methyl-5-[2-(6-methyl-pyridin-3-yl)-ethyl]-2,3,4,5-tetrahydro-1H-pyrido[4,3-b]indole] | 88 | 82 | 53 | 58 | 109
2 | Cc1ccc2c(c1)c1c(n2CCc2cccnc2)CCN(C)C1 [Compound 60] | 82 | 90 | 84 | 56 | 95
3 | CCc1ccc2c(c1)c1c(n2CCc2ccc(C)nc2)CCN(C)C1 [Compound 357, 8-Ethyl-2-methyl-5-[2-(6-methyl-pyridin-3-yl)-ethyl]-2,3,4,5-tetrahydro-1H-pyrido[4,3-b]indole] | 89 | 67 | 69 | 68 | 106
4 | Cc1cnc(CCn2c3c(c4cc(Cl)ccc42)CN(C)CC3)cn1 [Compound 363, 8-Chloro-2-methyl-5-[2-(5-methyl-pyrazin-2-yl)-ethyl]-2,3,4,5-tetrahydro-1H-pyrido[4,3-b]indole] | 73 | 66 | 75 | 31 | 104
5 | Cc1ccc2c(c1)c1c(n2CCc2ccccc2)CCNC1 [Compound 228, 2,3,4,5-tetrahydro-8-methyl-5-phenethyl-1H-pyrido[4,3-b]indole] | 76 | 82 | 77 | 15 | 101
6 | CN1CCc2c(c3ccc(Cl)cc3n2CCC2CCCCC2)C1 [Compound 188, 7-chloro-5-(2-cyclohexylethyl)-2,3,4,5-tetrahydro-2-methyl-1H-pyrido[4,3-b]indole] | 8 | 66 | 58 | 72 | 65
7 | CN1CCc2c(c3cc(Cl)ccc3n2CCc2cncc(C(F)(F)F)c2)C1 [Compound 426, 8-chloro-5-(2-(5-(trifluoromethyl)pyridin-3-yl)ethyl)-2,3,4,5-tetrahydro-2-methyl-1H-pyrido[4,3-b]indole] | 69 | 80 | 85 | 66 | 98
8 | Cc1ccc(CCn2c3c(c4cc(Cl)ccc42)CN(c2cccc(C(F)(F)F)c2)CC3)cn1 [Compound 403, 8-Chloro-5-[2-(6-methyl-pyridin-3-yl)-ethyl]-2-(3-trifluoromethyl-phenyl)-2,3,4,5-tetrahydro-1H-pyrido[4,3-b]indole] | 19 | 35 | 32 | 10 | 46
